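Grown in 96-well plates, cells were treated for 48 hours with each compound at five concentrations. Insufficient inhibition: endpoint recorded as highest concentration tested. At the GI50, growth is halved. TGI is the concentration that stops growth completely.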

Some test systems named below: SK-OV-3 ovarian; NCI-H226 lung; TK-10 renal; HCC-2998 colon; IGROV1 ovarian; COLO 205 colon; NCI-H460 lung; RPMI-8226 leukemia; NCI-H23 lung.
Common to all, as to assay: NCI-60 cell line screen, 48 h

Take `CC(=O)OC1=C2CC[C@@H]3C(CC[C@@]4(C)C3CC[C@@H]4OC(C)=O)[C@@]2(C)CC(C#N)C1=O` (some centres not stated): the TGI with SK-OV-3 ovarian was 48.1 µM; in the experiment on NCI-H226 lung, over 100 µM; with TK-10 renal, over 100 µM; in the experiment on HCC-2998 colon, over 100 µM; in the experiment on IGROV1 ovarian it was 61.4 µM; in the experiment with COLO 205 colon it was 43.5 µM. In addition, the TGI in the experiment with NCI-H460 lung was 74.4 µM; in the experiment with RPMI-8226 leukemia, 46.9 µM; in the experiment on NCI-H23 lung, over 100 µM.
With `CC[C@]12C=CCN3CC[C@@]4(c5ccc(OC)cc5N(C)[C@H]4[C@@](O)(C(=O)OC)[C@@H]1OC(=O)CCC(=O)O[C@H]1CC[C@H]4[C@@H]5CC[C@H]6CC(=O)CC[C@]6(C)[C@H]5CC[C@]14C)[C@@H]32`, the GI50 in the experiment with SK-OV-3 ovarian was 2.89 µM; with NCI-H226 lung, 3.84 µM; in the experiment with TK-10 renal it was 2.55 µM; in the experiment with HCC-2998 colon it was 3.34 µM; with IGROV1 ovarian, 3.17 µM; in the experiment with NCI-H460 lung, 2.76 µM. Besides, the GI50 in the experiment with NCI-H23 lung is 3.54 µM. In addition, the TGI with SK-OV-3 ovarian was 9.55 µM; in the experiment with NCI-H226 lung, over 100 µM; in the experiment with TK-10 renal, 17.8 µM; in the experiment with HCC-2998 colon it was over 100 µM; in the experiment on IGROV1 ovarian, over 100 µM; in the experiment with NCI-H460 lung, 10.6 µM. Further, the TGI in the experiment on NCI-H23 lung is over 100 µM.
In the case of `COc1ccc2c(c1)C(=O)c1c-2c(N2CCN(C(=O)CCNCCNCCN)CC2)nc2ccccc12`, the GI50 with SK-OV-3 ovarian is 14.6 µM; in the experiment with NCI-H226 lung, 22.6 µM; in the experiment with TK-10 renal, 18.4 µM; with IGROV1 ovarian, 5.89 µM; in the experiment on COLO 205 colon, 2.54 µM; in the experiment on NCI-H460 lung, 2.4 µM. For the same compound, in the experiment with RPMI-8226 leukemia, the GI50 was 2.93 µM. Moreover, the TGI in the experiment on SK-OV-3 ovarian is 30.6 µM; with NCI-H226 lung it was 78.4 µM; in the experiment on TK-10 renal, 42.1 µM; in the experiment on IGROV1 ovarian, 32.7 µM; with COLO 205 colon, 6.34 µM; in the experiment with NCI-H460 lung, 5.42 µM. Also, the TGI with RPMI-8226 leukemia worked out at 9.71 µM.
With `Cc1ccc2[nH]c(C(=O)NN3C(=O)C(C)SC34CCC(C)CC4)c(-c3ccccc3)c2c1` (configuration not stated), the GI50 in the experiment on SK-OV-3 ovarian was 33.4 µM; with NCI-H226 lung, 17.3 µM; in the experiment with TK-10 renal, 14.2 µM; with HCC-2998 colon, 16.6 µM; in the experiment with IGROV1 ovarian, 13.6 µM; in the experiment with COLO 205 colon, 17.8 µM. In addition, the GI50 with NCI-H460 lung is 15.7 µM; in the experiment on RPMI-8226 leukemia, 11.5 µM; in the experiment on NCI-H23 lung, 15.2 µM. For the same compound, the TGI was over 100 µM with SK-OV-3 ovarian; 35.5 µM with NCI-H226 lung; 29.6 µM in the experiment on TK-10 renal; 31.7 µM in the experiment with HCC-2998 colon; 36.4 µM in the experiment on IGROV1 ovarian; 41.1 µM in the experiment on COLO 205 colon. The TGI came to 43.9 µM in the experiment on NCI-H460 lung, 52.6 µM with RPMI-8226 leukemia and 32 µM in the experiment with NCI-H23 lung.
Regarding `CCOC(=O)CNC(=O)OCc1ccccc1`, the TGI in the experiment on SK-OV-3 ovarian, in the experiment on TK-10 renal, in the experiment with HCC-2998 colon, with IGROV1 ovarian, with COLO 205 colon and in the experiment with NCI-H460 lung was over 100 µM throughout. The TGI in the experiment on NCI-H23 lung is over 100 µM.
As to `[Co].[O-]c1cccnc1C=Nc1ccccc1.[OH3+]`, the GI50 in the experiment with SK-OV-3 ovarian, with TK-10 renal, with IGROV1 ovarian, in the experiment on COLO 205 colon, with NCI-H460 lung and with RPMI-8226 leukemia was over 100 µM each time. Further, the GI50 in the experiment with NCI-H23 lung is over 100 µM. In addition, the TGI in the experiment on SK-OV-3 ovarian, with TK-10 renal, in the experiment with IGROV1 ovarian, in the experiment with COLO 205 colon, in the experiment with NCI-H460 lung and in the experiment with RPMI-8226 leukemia was over 100 µM throughout. The compound further had a TGI with NCI-H23 lung of over 100 µM.
Consider `CC(=O)NCc1c(C(N)=O)ncn1Cc1ccccc1`, for which the TGI in the experiment with SK-OV-3 ovarian, in the experiment on TK-10 renal, in the experiment on HCC-2998 colon, in the experiment with IGROV1 ovarian, with COLO 205 colon and in the experiment with NCI-H460 lung was over 100 µM each time. The TGI in the experiment on RPMI-8226 leukemia and in the experiment with NCI-H23 lung was over 100 µM throughout.
As for `CC1(C)CCc2c(c(N=Nc3ccccc3F)c3ccccc3c2O)O1`, the GI50 in the experiment with SK-OV-3 ovarian was 25.7 µM; in the experiment on NCI-H226 lung it was 38.7 µM; with TK-10 renal, 68.2 µM; in the experiment with HCC-2998 colon it was 22.6 µM; with IGROV1 ovarian, 32.4 µM; with COLO 205 colon, over 100 µM. In addition, the figures for the GI50 with NCI-H460 lung, in the experiment with RPMI-8226 leukemia and in the experiment with NCI-H23 lung were 38.3 µM, over 100 µM and 16.8 µM, respectively. Besides, the TGI with SK-OV-3 ovarian was 75.9 µM; in the experiment on NCI-H226 lung it was over 100 µM; with TK-10 renal, over 100 µM; in the experiment on HCC-2998 colon it was over 100 µM; in the experiment on IGROV1 ovarian, over 100 µM; in the experiment with COLO 205 colon, over 100 µM. Also, the TGI in the experiment on NCI-H460 lung was over 100 µM; in the experiment with RPMI-8226 leukemia, over 100 µM; in the experiment on NCI-H23 lung it was 58.6 µM.
On to `O=C1c2cc3c(cc2-c2c1c1ccc(F)cc1c(=O)n2C[C@H](O)[C@H](O)[C@H](O)CO)OCO3`, for which the GI50 is 0.186 µM with SK-OV-3 ovarian; 0.248 µM in the experiment with TK-10 renal; 0.322 µM in the experiment with IGROV1 ovarian; 0.193 µM in the experiment on COLO 205 colon; 0.505 µM in the experiment on RPMI-8226 leukemia; 0.129 µM in the experiment with NCI-H23 lung. The TGI in the experiment on SK-OV-3 ovarian was 0.694 µM; in the experiment with TK-10 renal, 0.873 µM; in the experiment with IGROV1 ovarian it was over 100 µM; in the experiment on COLO 205 colon it was 0.959 µM; in the experiment with RPMI-8226 leukemia, 5.6 µM; in the experiment with NCI-H23 lung, 0.482 µM.
Consider `O=C(C=Nc1ccccc1S)c1ccco1`, for which the GI50 is 3.2 µM with SK-OV-3 ovarian, 20.6 µM with HCC-2998 colon and over 100 µM in the experiment on NCI-H460 lung. Also, the TGI in the experiment with SK-OV-3 ovarian is 10.1 µM; in the experiment on TK-10 renal, 33.4 µM; in the experiment with HCC-2998 colon it was 36.6 µM; in the experiment with IGROV1 ovarian it was 22.2 µM; in the experiment on COLO 205 colon, 32.1 µM; in the experiment with NCI-H460 lung it was over 100 µM. For the same compound, the TGI with RPMI-8226 leukemia is 46.1 µM; with NCI-H23 lung, 15.6 µM.
As for `CCN(CCO)CCCC(C)Nc1ccnc2cc(Cl)ccc12` (configuration not stated), the GI50 in the experiment on SK-OV-3 ovarian, with NCI-H226 lung, with TK-10 renal, with IGROV1 ovarian, in the experiment with COLO 205 colon and in the experiment with NCI-H460 lung was over 100 µM each time. The TGI in the experiment with SK-OV-3 ovarian, with NCI-H226 lung, in the experiment on TK-10 renal, in the experiment on IGROV1 ovarian, in the experiment on COLO 205 colon and in the experiment on NCI-H460 lung was over 100 µM in each case.

Values taken from PubChem BioAssay (NCI).
